The source of these data is ChEMBL document CHEMBL5244281, “Tackling multidrug-resistant Staphylococcus aureus by natural products and their analogues acting as NorA efflux pump inhibitors” (Bioorg Med Chem, 2023).

In brackets after ≈: the same amount, converted by molar mass. Where only a bound is given, the exact number is not on record here.

In experiment [1] the test system is Staphylococcus aureus. Briefly: Antibacterial activity against methicillin-resistant Staphylococcus aureus clinical isolate assessed as bacterial growth inhibition by broth dilution method. The format is functional. Background: Dilution methods test growth across graded concentrations, often in twofold steps.
For experiment [2], the target named is T1, Quinolone resistance protein NorA (Staphylococcus aureus) (UniProt P0A0J7).
T1 sequence (whole entry): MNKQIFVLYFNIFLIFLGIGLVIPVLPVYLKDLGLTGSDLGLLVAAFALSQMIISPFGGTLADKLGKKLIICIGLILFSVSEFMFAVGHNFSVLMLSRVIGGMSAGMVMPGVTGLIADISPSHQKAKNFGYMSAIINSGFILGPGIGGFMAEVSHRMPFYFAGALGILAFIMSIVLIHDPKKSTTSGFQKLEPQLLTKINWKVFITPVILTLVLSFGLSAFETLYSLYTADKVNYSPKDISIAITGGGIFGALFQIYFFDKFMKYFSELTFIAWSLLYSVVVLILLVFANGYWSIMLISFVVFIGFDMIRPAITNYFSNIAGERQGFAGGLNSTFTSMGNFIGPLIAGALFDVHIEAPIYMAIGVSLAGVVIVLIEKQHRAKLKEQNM
Briefly: Inhibition of NorA efflux pump in methicillin-resistant Staphylococcus aureus clinical isolate assessed as EtBr MIC using EtBr as substrate at 64 ug/ml and measured for 20 mins by spectrofluorimetric analysis (Rvb=[…] ug/ml). To be noted: dose 64.0 µg/ml.

For experiment [3], the system named is Staphylococcus aureus. As to the kind of experiment: Synergistic antibacterial activity against methicillin-resistant Staphylococcus aureus clinical isolate assessed as fractional inhibitory concentration index in presence of ciprofloxacin by checkerboard assay. The format is functional.
For experiment [4], the target named is T1, Quinolone resistance protein NorA (Staphylococcus aureus). Briefly: Inhibition of NorA efflux pump in methicillin-resistant Staphylococcus aureus clinical isolate assessed as decrease in ciprofloxacin MIC and measured for 20 mins in presence of ciprofloxacin by spectrofluorimetric analysis (Rvb=128 ug/ml).
Experiment [5] shares this target. Briefly: Inhibition of NorA efflux pump in Staphylococcus aureus 1199B overexpressing NorA efflux pump assessed as decrease in ciprofloxacin MIC and […] (Rvb=8 ug/ml).
In experiment [6] the test system is Staphylococcus aureus. Briefly: Antimicrobial activity against Staphylococcus aureus ATCC 29213 assessed as bacterial growth inhibition incubated for 18 hrs by broth microdilution assay. The format is functional.
Experiment [7] deals with Staphylococcus aureus. Briefly: Antimicrobial activity against Staphylococcus aureus ATCC 43300 assessed as bacterial growth inhibition incubated for 18 hrs by broth microdilution assay. The format is functional.
For experiment [8], the system named is Staphylococcus aureus. Briefly: Antimicrobial activity against Staphylococcus aureus BAA-44 assessed as bacterial growth inhibition incubated for 18 hrs by broth microdilution assay. It is filed as functional.
Experiment [9] concerns Escherichia coli. Briefly: Antimicrobial activity against Escherichia coli ATCC 25922 assessed as bacterial growth inhibition incubated for 18 hrs by broth microdilution assay. It is filed as functional.
A further experiment deals with Enterococcus faecalis. As to the kind of experiment: Antimicrobial activity against Enterococcus faecalis ATCC 29212 assessed as bacterial growth inhibition incubated for 18 hrs by broth microdilution assay. The format is functional.
The next experiment concerns Enterococcus faecium. As to the kind of experiment: Antimicrobial activity against Enterococcus faecium ATCC 700221 assessed as bacterial growth inhibition incubated for 18 hrs by broth microdilution assay. It is filed as functional.
A further experiment deals with Klebsiella pneumoniae. Briefly: Antimicrobial activity against Klebsiella pneumoniae 1213-2 assessed as bacterial growth inhibition incubated for 18 hrs by broth microdilution assay. The format is functional.
For experiment [10], the system named is Staphylococcus aureus. As to the kind of experiment: Antibacterial activity against Staphylococcus aureus IS-58 harboring TetK efflux pump protein assessed as bacterial growth inhibition incubated for 24 hrs by broth microdilution method. The format is functional.
The subject of experiment [11] is Staphylococcus aureus. As to the kind of experiment: Antibacterial activity against norfloxacin resistant Staphylococcus aureus 1199B harboring NorA efflux pump assessed as bacterial growth inhibition incubated for 24 hrs by broth microdilution method. The format is functional.
For experiment [12], the system named is Staphylococcus aureus. As to the kind of experiment: Potentiation of tetracycline-induced inhibition of TetK efflux pump in Staphylococcus aureus IS-58 overexpressing TetK efflux pump assessed as reduction in tetracycline MIC at 1/8 times of MIC incubated for 24 hrs by resazurin based assay (Rvb=192 ug/ml). For orientation: Alamar Blue is a resazurin reagent that responds to reducing activity.

For experiment [13], the target named is T1, Quinolone resistance protein NorA (Staphylococcus aureus). Conditions: 1199B.
The test system of experiment [14] is Staphylococcus aureus. Briefly: Antibacterial activity against Staphylococcus aureus 1199B overexpressing NorA efflux protein assessed as bacterial growth inhibition incubated for 24 hrs by microdilution method. It is filed as functional.
Experiment [15] deals with Staphylococcus aureus. As to the kind of experiment: Antibacterial activity against wild type Staphylococcus aureus ATCC 25923 assessed as bacterial growth inhibition incubated for 24 hrs by microdilution method. It is filed as functional.
For experiment [16], the system named is Escherichia coli. Briefly: Antibacterial activity against Escherichia coli ATCC 25922 assessed as bacterial growth inhibition incubated for 24 hrs by microdilution method. The format is functional.
The next experiment relates to Candida albicans. Briefly: Antimicrobial activity against Candida albicans ATCC 10231 assessed as […] growth inhibition incubated for 24 hrs by microdilution method. The format is functional.
Experiment [17] addresses T1, Quinolone resistance protein NorA (Staphylococcus aureus). Conditions: 1199B. This is another data set of the same source.
Experiment [18] deals with Staphylococcus aureus. Briefly: Antibacterial activity against methicillin resistant Staphylococcus aureus clinical isolates assessed as bacterial growth inhibition. It is filed as functional.
Experiment [19] has as its system Staphylococcus aureus. As to the kind of experiment: Synergistic antibacterial activity against methicillin resistant Staphylococcus aureus clinical isolates assessed as fractional inhibitory concentration index in presence of norfloxacin. It is filed as functional.
Experiment [20] relates to Staphylococcus aureus. As to the kind of experiment: Synergistic antibacterial activity against methicillin resistant Staphylococcus aureus clinical isolates assessed as fractional inhibitory concentration index in presence of ciprofloxacin. The format is functional.
Experiment [21] concerns Staphylococcus aureus. Briefly: Synergistic antibacterial activity against methicillin resistant Staphylococcus aureus clinical isolates assessed as fractional inhibitory concentration index in presence of ofloxacin. It is filed as functional.
In experiment [22] the test system is Staphylococcus aureus. As to the kind of experiment: Antibacterial activity against Staphylococcus aureus 1199B overexpressing NorA efflux pump assessed as bacterial growth inhibition incubated for 18 hrs by broth dilution method. The format is functional.
The subject of experiment [23] is Staphylococcus aureus. Briefly: Antibacterial activity against Staphylococcus aureus K1758 with NorA knockout assessed as bacterial growth inhibition incubated for 18 hrs by broth dilution method. It is filed as functional.
Experiment [24] addresses T1, Quinolone resistance protein NorA (Staphylococcus aureus). As to the kind of experiment: Inhibition of NorA efflux pump in Staphylococcus aureus 1199B overexpressing NorA efflux pump assessed as decrease in ciprofloxacin MIC at 1/4 times MIC and measured for 45 mins in presence of ciprofloxacin by fluorimetric analysis (Rvb=8 ug/ml).
Experiment [25] has the same target. Briefly: Inhibition of NorA efflux pump in Staphylococcus aureus 1199B overexpressing NorA efflux pump assessed as decrease in norfloxacin MIC at 1/4 times MIC and measured for 45 mins in presence of norfloxacin by fluorimetric analysis (Rvb=32 ug/ml).

For `COC(=O)/C=C/c1ccc(OCC(=O)Nc2ccc(C)cc2)c(OC)c1`, the MIC was greater than 125 µg/mL with Staphylococcus aureus [1], 4 µg/mL in experiment [2], 64 µg/mL in [4] and 2 µg/mL in [5]. Moreover, the “fractional inhibitory concentration index (FICI)” value with Staphylococcus aureus [3] worked out at 0.75.

For the compound `CN(CC[C@H](N)CC(=O)N[C@H]1C=C[C@H](n2ccc(N)nc2=O)O[C@@H]1C(N)=O)C(=N)N`, the MIC in the experiment with Staphylococcus aureus [6] turned out to be 6.25 µg/mL (≈ 14.8 µM); in the experiment with Staphylococcus aureus [7], 12.5 µg/mL (≈ 29.7 µM); in the experiment with Staphylococcus aureus [8], 12.5 µg/mL (≈ 29.7 µM); in the experiment on Escherichia coli [9] it was 12.5 µg/mL (≈ 29.7 µM); in the experiment on Enterococcus faecalis it was 12.5 µg/mL (≈ 29.7 µM); in the experiment on Enterococcus faecium, 50 µg/mL (≈ 119 µM). For the same compound, the MIC in the experiment with Klebsiella pneumoniae is 50 µg/mL (≈ 119 µM).

Turning to `CC1=CC[C@@H]([C@@](C)(O)CCCC(C)C)CC1`, the MIC in the experiment with Staphylococcus aureus [10] was no less than 1020 µg/mL; in the experiment on Staphylococcus aureus [11] it was no less than 1020 µg/mL; with Staphylococcus aureus [12] it was 128 µg/mL; in experiment [13], 32 µg/mL (≈ 143 µM).

Consider `COc1ccc(/C=C/[C@@H]2c3c(cc(O)cc3OC)C[C@H]3c4ccc(O)cc4O[C@H](c4ccccc4)[C@@H]23)cc1`, for which the MIC is greater than 1020 µg/mL with Staphylococcus aureus [14]; greater than 1020 µg/mL in the experiment on Staphylococcus aureus [15]; greater than 1020 µg/mL in the experiment on Escherichia coli [16]; 161 µg/mL (≈ 318 µM) with Candida albicans; 16 µg/mL (≈ 31.6 µM) in experiment [17].

With `CC1=CCC[C@@]2(C)[C@@]1(C)CC[C@@H](C)[C@]2(C)CCC1=CC(=O)O[C@@H]1O`, the MIC with Staphylococcus aureus [18] came to 15.6 µg/mL (≈ 47 µM). The “fractional inhibitory concentration index (FICI)” value in the experiment on Staphylococcus aureus [19] turned out to be 0.315; in the experiment on Staphylococcus aureus [20], 0.324; in the experiment with Staphylococcus aureus [21] it was 0.324.

As to `O=C(/C=C/c1ccco1)N/N=C/c1ccc(Br)o1`, the MIC with Staphylococcus aureus [22] turned out to be 64 µg/mL (≈ 207 µM); with Staphylococcus aureus [23], 64 µg/mL (≈ 207 µM); in experiment [24] it was 0.5 µg/mL; in experiment [25], 1 µg/mL.
